# Read-outs that look alike come from different tables or passages of the source. Marks after values point to notes of the source that are not given here.
# Key:
# [1] = tested on: healthy, elderly subjects; test: Study K.241.5014: gastric emptying time, elderly, 8 mg TID; type: in vivo, human; conditions: 8 mg TID oral 14 days, mean (SD)
# Excerpt: The effect of cilansetron on gastric emptying time and colonic transit time has been studied in 1 clinical study in healthy young subjects and 2 studies in elderly subjects. For measurement of gastric emptying time, breath samples for the determination of the ^12C/^13C ratio were taken on the last day of each treatment period immediately after ingestion of a ^13C labeled meal. The patients' breath was collected in separate 15-minute intervals, for four hours in total. ^13CO2 measurements were performed with an isotope ratio mass spectrometer. The half-life (TK) and lag-time (Tlag), which describe the duration of gastric emptying, were used as the primary parameters to evaluate gastric emptying time. In all 3 studies, colonic transit time was measured by administration of radio-opaque markers for the last six days of each treatment period, followed by a single abdominal X-ray image at 24 hours after ingestion of the last set of markers. The numbers of markers within the colon were used to calculate segmental (right colon, left colon, and rectosigmoid) and total colonic transit time.
# Studies K.241.5013 and K.241.5014 were randomized, double-blind, placebo-controlled, 2-way crossover studies in 8 healthy male and female elderly subjects, each (ITT population, aged 64-83 years in K.241.5013 and 66-84 years in K.241.5014). […]
# [2] = tested on: diarrhea-predominant IBS subjects; type: in vivo, human; conditions: for Percentage of Subjects Who Worsened from Baseline: Daily Abdominal Pain / Percentage of Subjects Who Worsened from Baseline: Daily Urgency: S241.3.006, observed value
# Excerpt: Studies S24 1.3.OO6, S24 1.3.0 1 1, and S24 1.3.009 used the following efficacy measurements: • The subjects answered the following three questions with “yes” or “no” using a phone diary at the end of each week: • a) During the last week, did you experience adequate relief of your IBS symptoms, such as abdominal pain, abdominal discomfort, abnormal bowel habits? • b) During the last week, did you experience adequate relief of your abdominal pain and/or discomfort? • c) During the last week, did you experience adequate relief of your abnormal bowel habits? • The subjects rated the following symptoms using the phone diary at the end of each day: • abdominal pain/discomfort (five-point scale); • stool consistency (seven-point Bristol Stool Scale); • stool frequency (number of bowel movements each day); • urgency (five-point scale); • straining (yes or no); • feeling of incomplete defecation (yes or no); • bloating or feeling of abdominal distension (five-point scale). • In Studies S241 A006 and S241.3.009, subjects completed the IBS-QOL Survey at Baseline (Day 1) and at the end of treatment. In Study S24 1.3.0 1 1, subjects completed the IBS-QOL Survey at Baseline (Day 1), at the end of the three-month treatment period, and at the end of rerandomized treatment.
# Other secondary efficacy parameters for all three studies included: • Responder rate for the weekly diary questions on adequate relief at each month, where a responder for a month (monthly responder) was defined as a subject who answered the weekly question with “yes” at least twice for that month. The responder rate was the percentage of responders within a treatment group. The all-month responder rate for the weekly diary questions on adequate relief was also evaluated, where an all-month responder was defined as a subject who answered the weekly question with “yes” at least twice for each month. The all-month responder rate was the percentage of all-month responders within a treatment group; • Adequate relief rate for the weekly diary questions was calculated for each subject as the number of weekly assessments with adequate relief (“yes”) divided by the total number of weekly assessments; • Percentage of subjects with adequate relief for the weekly diary questions at each week; • Daily diary questions regarding abdominal pain/discomfort (five-point scale), stool consistency (seven-point scale), stool frequency (number of bowel movements each day), straining (yes or no), urgency (five-point scale), feeling of incomplete evacuation (yes or no), and bloating or feeling of abdominal distention (five-point scale); • QOL data assessed by the IBS-QOL questionnaire; and • Question to determine the interruption of activities.
# The deterioration of effect analyses focus is to evaluate the percentage of subjects who worsened from Baseline. Clinical limits were set in order to capture a clinically meaningful number of subjects who worsened from Baseline. This clinical limit was also used in identifying those who improved from Baseline which led to a much larger percentage of subjects meeting this criterion. Percentages of subjects who improved from Baseline for these analyses are discussed in order to understand the context of the percentage of subjects who worsened.
# CYP3A4 = conditions: hepatocytes
smiles,measurement,setting,value
"Cc1nccn1C[C@H]1CCc2c(c3cccc4c3n2CCC4)C1=O [Cilansetron, (R)-(−)-4,5,6,8,9,10-hexahydro-10-[(2-methyl-1H-imidazol-1-yl)methyl]-11H-pyrido-[3,2,1-jk]-carbazol-11-one]",gastric emptying time T½,[1],166 (18) min
same,gastric emptying time Tlag,[1]; significant vs placebo (p < 0.05),114 (18)* min
same,Mean number of stools per day at end of treatment,[2]; 2 mg TID,2.45 stools per day
same,Percentage of Subjects Who Worsened from Baseline: Daily Abdominal Pain,"[2]; Weeks 1-2, 2 mg TID",13%
same,Percentage of Subjects Who Worsened from Baseline: Daily Urgency,"[2]; Weeks 1-2, 2 mg TID",5%
same,Percentage of Subjects Who Worsened from Baseline: Daily Abdominal Pain,"[2]; Weeks 3-4, 2 mg TID",8%
same,Percentage of Subjects Who Worsened from Baseline: Daily Urgency,"[2]; Weeks 3-4, 2 mg TID",5%
same,Percentage of Subjects Who Worsened from Baseline: Daily Abdominal Pain,"[2]; Weeks 5-6, 2 mg TID",9%
same,Percentage of Subjects Who Worsened from Baseline: Daily Urgency,"[2]; Weeks 5-6, 2 mg TID",8%
same,Percentage of Subjects Who Worsened from Baseline: Daily Abdominal Pain,"[2]; Weeks 7-8, 2 mg TID",7%
same,Percentage of Subjects Who Worsened from Baseline: Daily Urgency,"[2]; Weeks 7-8, 2 mg TID",5%
same,Percentage of Subjects Who Worsened from Baseline: Daily Abdominal Pain,"[2]; Weeks 9-10, 2 mg TID",8%
same,Percentage of Subjects Who Worsened from Baseline: Daily Urgency,"[2]; Weeks 9-10, 2 mg TID",8%
same,Percentage of Subjects Who Worsened from Baseline: Daily Abdominal Pain,"[2]; Weeks 11-12, 2 mg TID",8%
same,Percentage of Subjects Who Worsened from Baseline: Daily Urgency,"[2]; Weeks 11-12, 2 mg TID",8%
same,"Subjects worsened from Baseline, daily abdominal pain",[2]; Weeks 1-2,13%
same,"Subjects worsened from Baseline, daily urgency",[2]; Weeks 1-2,5%
same,Median rate of urgency-free days,[2]; end of treatment,0.27
same,"Bloating or abdominal distention score, change from Baseline at end of treatment",[2]; in vivo,−0.48
same,"Daily abdominal pain/discomfort score, change from Baseline at end of treatment",[2]; in vivo,−0.69
same,"Daily stool consistency score, change from Baseline at end of treatment",[2]; in vivo,−1.22
same,"Daily urgency score, change from Baseline at end of treatment",[2]; in vivo,−0.87
same,"Feeling of incomplete evacuation, change from Baseline at end of treatment",[2]; in vivo,−0.18
same,Mean stool consistency score at end of treatment,[2]; in vivo,4.10
same,"Mean straining, change from Baseline at end of treatment",[2]; in vivo,0.09
same,"Stools per day, change from Baseline at end of treatment",[2]; in vivo,−0.98
same,Median rate of pain-free days,[2]; three-month period,0.19
same,Median rate of urgency-free days,[2]; three-month period,0.32
same,CYP3A4 mRNA induction,CYP3A4,did not induce

# Reference: patent US20090176817A1, “Method of Treatment of Diarrhea-Predominant Irritable Bowel Syndrome in a Subject” (priority 2005, published 2009)
